The data set in a line: SuFEx S-O bond formation: di-sulfonimidoyl fluoride (mixture of diastereomers) + diphenol (1:1), DBU 2.1 equiv, [1+1] macrocyclisation, one pot. As to conditions: the molecule shown is the open-chain precursor, MeCN, 20.0 mM, 50.0 °C.

For `Cc1ccc(S(=O)(F)=NC(=O)c2ccc(Oc3ccc(C(=O)N=S(=O)(Oc4cccc(Oc5cccc(Oc6cccc(O)c6)c5)c4)c4ccc(C)cc4)cc3)cc2)cc1` (stereo not drawn) [3k], the ring closure, isolated yield (28-membered ring, 3.0 h) was 88%.

As to `Cc1ccc(S(=O)(F)=NC(=O)c2ccc(C(=O)N=S(=O)(Oc3ccccc3CNCCCCCCNCc3ccccc3O)c3ccc(C)cc3)cc2)cc1` (stereo not drawn) [3e], the ring closure, isolated yield (26-membered ring, 3.0 h) came to 91%.

As for `Cc1ccc(S(=O)(F)=NC(=O)c2ccc(C(=O)N=S(=O)(Oc3ccc(OCCCCCCCCOc4ccc(O)cc4)cc3)c3ccc(C)cc3)cc2)cc1` (stereo not drawn) [3h], the ring closure, isolated yield (30-membered ring, 3.0 h) turned out to be 62%.

On to `Cc1ccc(S(=O)(F)=NC(=O)c2ccc(C(=O)N=S(=O)(Oc3ccc(OCCOc4ccc(O)cc4)cc3)c3ccc(C)cc3)cc2)cc1` (stereo not drawn) [3g], for which, under “24-membered ring, 3.0 h”, the ring closure, isolated yield was 79%.

With `CCC(c1ccc(O)cc1)C(CC)c1ccc(OS(=O)(=NC(=O)c2ccc(C(=O)N=S(=O)(F)c3ccc(C)cc3)cc2)c2ccc(C)cc2)cc1` (stereo not drawn) [3b], where the note is “22-membered ring, 3.0 h”, the ring closure, isolated yield amounted to 61%.

As to `Cc1ccc(S(=O)(F)=NC(=O)c2ccc(-c3ccc(C(=O)N=S(=O)(Oc4ccccc4CNCCCCCCNCc4ccccc4O)c4ccc(C)cc4)cc3)cc2)cc1` (stereo not drawn) [3s], the ring closure, isolated yield (30-membered ring, 3.0 h) stood at 80%.

For the compound `CCC(c1ccc(O)cc1)C(CC)c1ccc(OS(=O)(=NC(=O)c2ccc(Oc3ccc(C(=O)N=S(=O)(F)c4ccc(C)cc4)cc3)cc2)c2ccc(C)cc2)cc1` (stereo not drawn) [3j], the ring closure, isolated yield (27-membered ring, 3.0 h) came to 88%.

For the compound `Cc1ccc(S(=O)(F)=NC(=O)c2ccc(Oc3ccc(C(=O)N=S(=O)(Oc4ccc(OCCCCOc5ccc(O)cc5)cc4)c4ccc(C)cc4)cc3)cc2)cc1` (stereo not drawn) [3m], the ring closure, isolated yield (31-membered ring, 3.0 h) was determined as 78%.

As for `Cc1ccc(S(=O)(F)=NC(=O)c2cccc(C(=O)N=S(=O)(Oc3ccc(SSc4ccc(O)cc4)cc3)c3ccc(C)cc3)c2)cc1` (stereo not drawn) [3n], the ring closure, isolated yield (21-membered ring, 3.0 h) is 72%.

In the case of `Cc1ccc(S(=O)(F)=NC(=O)c2cccc(C(=O)N=S(=O)(Oc3ccc(C(C)(C)c4cccc(C(C)(C)c5ccc(O)cc5)c4)cc3)c3ccc(C)cc3)c2)cc1` (stereo not drawn) [3o (isophthaloyl)], for the setting “24-membered ring, 3.0 h”, the ring closure, isolated yield turned out to be 70%.

Turning to `Cc1ccc(S(=O)(F)=NC(=O)c2ccc(-c3ccc(C(=O)N=S(=O)(Oc4ccc(C(C)(C)c5cccc(C(C)(C)c6ccc(O)cc6)c5)cc4)c4ccc(C)cc4)cc3)cc2)cc1` (stereo not drawn) [3t], for the setting “29-membered ring, 3.0 h”, the ring closure, isolated yield was 90%.

Take `Cc1ccc(S(=O)(F)=NC(=O)c2ccc(C(=O)N=S(=O)(Oc3cccc(Oc4cccc(Oc5cccc(O)c5)c4)c3)c3ccc(C)cc3)cc2)cc1` (stereo not drawn) [3d]: where the note is “23-membered ring, 3.0 h”, the ring closure, isolated yield was determined as 67%.

Turning to `Cc1ccc(S(=O)(F)=NC(=O)c2ccc(C(=O)N=S(=O)(Oc3ccc(C(C)(C)c4cccc(C(C)(C)c5ccc(O)cc5)c4)cc3)c3ccc(C)cc3)cc2)cc1` (stereo not drawn), the ring closure, isolated yield (25-membered ring, 3.0 h) amounted to 74%.

On to `Cc1ccc(S(=O)(F)=NC(=O)c2ccc(Oc3ccc(C(=O)N=S(=O)(Oc4ccc(OCCOc5ccc(O)cc5)cc4)c4ccc(C)cc4)cc3)cc2)cc1` (stereo not drawn) [3l], for which the ring closure, isolated yield (29-membered ring, 3.0 h) was 67%.

On to `Cc1ccc(S(=O)(F)=NC(=O)c2ccc(C(=O)N=S(=O)(Oc3ccccc3CNCCNCc3ccccc3O)c3ccc(C)cc3)cc2)cc1` (stereo not drawn) [3f], for which, for the setting “22-membered ring, 3.0 h”, the ring closure, isolated yield was 87%.

For the compound `Cc1ccc(S(=O)(F)=NC(=O)c2ccc(C(=O)N=S(=O)(Oc3ccc(Cc4ccc(O)cc4)cc3)c3ccc(C)cc3)cc2)cc1` (stereo not drawn) [3u (10 mM, 6 h)], the ring closure, isolated yield (21-membered ring, 6.0 h) came to 94%.

In the case of `Cc1ccc(S(=O)(F)=NC(=O)c2cccc(C(=O)N=S(=O)(Oc3ccc(SSc4ccc(O)cc4)cc3)c3ccc(C)cc3)n2)cc1` (stereo not drawn) [3r], the ring closure, isolated yield (21-membered ring, 3.0 h) is 91%.

Turning to `Cc1ccc(S(=O)(F)=NC(=O)c2cccc(C(=O)N=S(=O)(Oc3ccc(OCCOc4ccc(O)cc4)cc3)c3ccc(C)cc3)c2)cc1` (stereo not drawn) [3q], the ring closure, isolated yield (23-membered ring, 3.0 h) amounted to 64%.

As to `Cc1ccc(S(=O)(F)=NC(=O)c2ccc(Oc3ccc(C(=O)N=S(=O)(Oc4ccc(SSc5ccc(O)cc5)cc4)c4ccc(C)cc4)cc3)cc2)cc1` (stereo not drawn) [3i], the ring closure, isolated yield (27-membered ring, 3.0 h) came to 91%.

As for `Cc1ccc(S(=O)(F)=NC(=O)c2ccc(C(=O)N=S(=O)(Oc3ccc(SSc4ccc(O)cc4)cc3)c3ccc(C)cc3)cc2)cc1` (stereo not drawn) [3a], the ring closure, isolated yield (22-membered ring, 3.0 h) came out at 96%.

`Cc1ccc(S(=O)(F)=NC(=O)c2cccc(C(=O)N=S(=O)(Oc3cccc(Oc4cccc(Oc5cccc(O)c5)c4)c3)c3ccc(C)cc3)c2)cc1` (stereo not drawn) [3p]: the ring closure, isolated yield (22-membered ring, 3.0 h) is 69%.

These data come from PMC10660663.
